For one assay, the target named is T1, human LXR beta (Homo sapiens, UniProt P55055).
T1 construct: human LXR beta (aa 155 to 460); made in house; host or cells: E. coli BL21(pLysS)
T1 sequence (P55055 155-460): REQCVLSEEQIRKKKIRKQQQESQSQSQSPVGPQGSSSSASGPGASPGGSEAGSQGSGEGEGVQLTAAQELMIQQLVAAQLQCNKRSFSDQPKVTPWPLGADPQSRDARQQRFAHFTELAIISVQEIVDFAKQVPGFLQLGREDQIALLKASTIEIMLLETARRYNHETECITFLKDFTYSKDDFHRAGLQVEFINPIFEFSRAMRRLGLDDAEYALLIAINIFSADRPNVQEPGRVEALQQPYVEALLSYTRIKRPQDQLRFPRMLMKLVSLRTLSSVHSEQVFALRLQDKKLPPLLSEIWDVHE
The assay is described as follows: Radioligand binding assay (scintillation proximity), LXR beta. As to conditions: GST-LXR beta-LBD on SPA beads, radioligand displacement; read-out: LXRbeta Binding IC50. An excerpt: (§1) Mammalian expression vectors were constructed to express full-length human LXR alpha and LXR beta. Bacterial expression vectors were constructed to produce glutathione-s-transferase (GST) fused to the ligand binding domains (LBD) of human LXR alpha (aa 164 to 447) and human LXR beta (aa 155 to 460). To accomplish this, the portions of the sequences encoding the LBDs were amplified from full-length clones by PCR and then subcloned into the plasmid vectors. Final clones were verified by DNA sequence analysis (Willy et al., Genes Dev. 1995, 9:1033-45; Song et al., Proc Natl Acad Sci USA. 1994, 91:10809-13).
(§2) Induction, expression, and purification of GST-LBD fusion proteins were performed in E. coli strain BL21(pLysS) cells by standard methods (Ref: Current Protocols in Molecular Biology, Wiley Press, edited by Ausubel et al).
(§3) LXR alpha and LXR beta receptor binding were assayed in buffer consisting of 50 mM HEPES, pH 7.4, 10 mM NaCl, 5 mM MgCl2. For each 96-well reaction, 500 ng of GST-LXR alpha-LBD or 700 ng of GST-LXR beta-LBD fusion proteins were bound to 80 μg or 40 μg SPA beads (Pharmacia Amersham) respectively, in a final volume of 50 μl by shaking. The resulting slurry was incubated for 1 h at RT and centrifuged for 2 min at 1300×g. The supernatant containing unbound protein was removed, and the semi-dry pellet containing the receptor-coated beads was re-suspended in 50 μl of buffer. Radioligand (eg. 100,000 dpm of (N-(2,2,2-trifluoroethyl)-N-[4-(2,2,2-trifluoro-1-hydroxy-1-trifluoromethylethyl)-phenyl]-benzenesulfonamide)) was added, and the reaction incubated at RT for 1 h in the presence of test compounds, and then scintillation proximity counting was performed. All binding assays were performed in 96-well plates and the amount of bound ligand was measured on a Packard TopCount using OptiPlates (Packard). Dose response curves were measured within a range of concentration from 10^−10 M to 10^−4 M.

In a further assay the target is T2, human LXR alpha (Homo sapiens, UniProt Q13133).
T2 construct: human LXR alpha (aa 164 to 447); made in house; host or cells: E. coli BL21(pLysS)
T2 sequence (Q13133 164-447): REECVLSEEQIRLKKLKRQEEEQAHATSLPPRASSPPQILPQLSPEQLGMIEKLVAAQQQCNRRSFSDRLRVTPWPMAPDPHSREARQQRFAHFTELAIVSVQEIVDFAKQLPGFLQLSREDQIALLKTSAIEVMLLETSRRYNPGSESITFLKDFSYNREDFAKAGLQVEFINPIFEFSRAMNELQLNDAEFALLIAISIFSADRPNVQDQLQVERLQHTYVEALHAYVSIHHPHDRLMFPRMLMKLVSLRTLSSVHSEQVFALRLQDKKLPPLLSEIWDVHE
Kind of assay: Radioligand binding assay (scintillation proximity), LXR alpha. As to conditions: GST-LXR alpha-LBD on SPA beads, radioligand displacement; read-out: LXRalpha Binding IC50.
Description: as §1, §2, §3

Consider `OC(c1ccc(OCc2ccccc2)c(Cl)c1)(C(F)(F)F)C(F)(F)F` [Example 13, 2-(4-Benzyloxy-3-chloro-phenyl)-1,1,1,3,3,3-hexafluoro-propan-2-ol], for which the IC50 at human LXR beta turned out to be 236 nM; at human LXR alpha, 237 nM.

`COC(=O)c1ccc(OC(COc2ccc(C(O)(C(F)(F)F)C(F)(F)F)cc2)c2ccccc2)cc1` (racemic) [Example 11, rac 4-{1-Phenyl-2-[4-(2,2,2-trifluoro-1-hydroxy-1-trifluoromethyl-ethyl)-phenoxy]-ethoxy}-benzoic acid methyl ester]: the IC50 stood at 14 nM at human LXR beta and 93 nM at human LXR alpha.

`Cc1oc(-c2cccc(Cl)c2)nc1COc1ccc(C(O)(C(F)(F)F)C(F)(F)F)cc1Cl` [Example 57, 2-{3-Chloro-4-[2-(3-chloro-phenyl)-5-methyl-oxazol-4-ylmethoxy]-phenyl}-1,1,1,3,3,3-hexafluoro-propan-2-ol]: the IC50 at human LXR beta came out at 22.7 nM; on human LXR alpha, 33 nM.

Source of the values: patent publication US7473705B2, “Hexafluoroisopropanol substituted ether derivatives” (Hoffmann-LA Roche Inc., priority 2004, dated 2009).
